In ChEMBL document CHEMBL1158559, “Chromone-2- and -3-carboxylic acids inhibit differently monoamine oxidases A and B” (Bioorg Med Chem Lett, 2010):

Legend:
[1] = target: T1, Amine oxidase [flavin-containing] A (Homo sapiens, UniProt P21397); assay: Inhibition of human recombinant MAO-A assessed as inhibition of production of hydrogen peroxide at 100 uM after 15 mins by the Amplex Red fluorimetric method
T1 sequence (P21397 whole entry): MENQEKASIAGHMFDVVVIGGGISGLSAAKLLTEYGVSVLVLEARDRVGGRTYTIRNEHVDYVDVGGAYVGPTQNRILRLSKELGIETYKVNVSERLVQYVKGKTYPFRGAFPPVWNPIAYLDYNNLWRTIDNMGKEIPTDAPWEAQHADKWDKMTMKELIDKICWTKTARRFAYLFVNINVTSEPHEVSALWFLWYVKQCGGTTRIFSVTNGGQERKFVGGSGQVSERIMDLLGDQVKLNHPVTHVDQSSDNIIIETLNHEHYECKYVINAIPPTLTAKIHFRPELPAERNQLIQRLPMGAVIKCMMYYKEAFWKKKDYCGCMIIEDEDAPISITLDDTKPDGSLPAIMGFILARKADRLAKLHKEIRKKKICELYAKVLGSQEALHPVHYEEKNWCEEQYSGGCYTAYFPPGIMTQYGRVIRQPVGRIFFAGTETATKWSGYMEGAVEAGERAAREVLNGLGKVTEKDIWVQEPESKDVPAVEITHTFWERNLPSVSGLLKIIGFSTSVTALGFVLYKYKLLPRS

[2] = target: T2, Amine oxidase [flavin-containing] B (Homo sapiens, UniProt P27338); assay: Inhibition of human recombinant MAO-B assessed as inhibition of production of hydrogen peroxide at 100 uM after 15 mins by the Amplex Red fluorimetric method
T2 sequence (P27338 whole entry): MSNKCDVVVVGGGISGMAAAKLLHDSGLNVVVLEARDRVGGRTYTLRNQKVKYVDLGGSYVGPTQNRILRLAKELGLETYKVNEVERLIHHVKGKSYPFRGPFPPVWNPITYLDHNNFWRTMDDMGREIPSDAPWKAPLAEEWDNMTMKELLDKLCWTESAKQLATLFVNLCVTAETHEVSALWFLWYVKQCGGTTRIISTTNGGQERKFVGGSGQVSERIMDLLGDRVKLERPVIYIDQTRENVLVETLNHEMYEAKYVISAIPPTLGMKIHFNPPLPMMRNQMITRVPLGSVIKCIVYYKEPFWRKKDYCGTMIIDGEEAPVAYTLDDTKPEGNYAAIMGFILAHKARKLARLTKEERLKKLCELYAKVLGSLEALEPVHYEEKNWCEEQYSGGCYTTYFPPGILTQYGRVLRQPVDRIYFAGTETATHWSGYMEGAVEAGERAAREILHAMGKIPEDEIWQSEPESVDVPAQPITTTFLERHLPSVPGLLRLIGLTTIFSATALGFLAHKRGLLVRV

[3] = target: T2, Amine oxidase [flavin-containing] B; assay: Inhibition of human recombinant MAO-B assessed as inhibition of production of hydrogen peroxide at 1 mM after 15 mins by the Amplex Red fluorimetric method

IC50 [1]	IC50 [2]	Structure (SMILES)	IC50 [3]
Not Active		O=C(O)c1coc2ccccc2c1=O	
Not Active	Not Active	O=C(O)c1cc(=O)c2ccccc2o1 [CHROMOCARB]	
		O=C(NCCN1CCOCC1)c1ccc(Cl)cc1 [MOCLOBEMIDE]	Not Active
